{
  "source": "patent US20250320190A1",
  "about": "“Novel Inhibitors of Leucine Carboxyl Methyltransferase-1 (LCMT-1) and Methods of Use Thereof” (Temple University-Of The Commonwealth System of Higher …, priority 2024, published 2025)",
  "key": {"[1]": {"test_system": "Rosi cells", "test": "Western blots", "type": "cell-based, human", "settings": "20 μM", "description": "(§1) MCF7, MDA-MB-231 and Rosi cells were treated with Compound 1 or Compound 2 at a concentration of 20 μM in complete medium, and lysates were harvested after 2, 4, 6, 8 and 12 hours in radioimmunoprecipitation assay buffer containing protease inhibitors (Boster Bio, Pleasanton, California, catalog #AR1182-1) and phosphatase inhibitors (Santa Cruz Biotechnology catalog #sc-45044 and #sc-45045). Protein concentrations were measured with a bicinchoninic acid assay (G-Biosciences, Saint Louis, Missouri). Fifty micrograms of each lysate were used for bis-tris polyacrylamide gel electrophoresis. Resolved lysates were transferred to nitrocellulose membranes. Membranes were blocked with TBS with 5% bovine serum albumin before incubation with primary antibodies.\n(§2) Antibodies obtained from Cell Signaling Technology (Danvers Massachusetts) were, anti-PP2Ac (catalog #2038, 1:1,000 dilution), anti-phospho-adenosine monophosphate-activated protein kinase (pAMPKα2 threonine 172, catalog #2535, 1:1,000 dilution). Antibodies obtained from Proteintech (Rosemont, Illinois) include anti-phospho-receptor-interacting serine/threonine protein kinase-1 antibodies (pRIPK1 serine 161 (catalog #66854-1-Ig, 1:1,000 dilution) and pRIPK1 serine 166 (catalog #28252-1-AP, 1:10,000 dilution), anti-mixed lineage kinase domain like pseudokinase (MLKL, catalog #66675-1-Ig, 1:5,000 dilution), anti-AMPKα2, anti-phospho-acetyl-coenzyme A carboxylase (pACC1 serine 79, catalog #29119-1-AP, 1:1,000 dilution), anti-ACC1 (catalog #21923-1-AP, 1:2,000 dilution) and anti-β-actin (catalog #66009-1-Ig, 1:50,000 dilution). The anti-RIPKI antibody was obtained from AbClonal (Woburn, Massachusetts, catalog #A7414, 1:750 dilution). The anti-phospho-MLKL antibody was obtained from R&D Systems (Minneapolis, Minnesota, 1:1,000 dilution). The LCMT-1 antibody was obtained from Origene (Rockville, Maryland, catalog #TA503127S, 1:2,000 dilution). Appropriate IR-dye secondary antibodies were used (Alexa Fluor® 790-conjugated anti-mouse (catalog #115-655-146, 1:50,000 dilution), Alexa Fluor® 680-conjugated anti-mouse (catalog #115-625-146, 1:50,000 dilution), and Alexa Fluor® 680-conjugated anti-rabbit (catalog #115-625-144, 1:50,000 dilution) were obtained from Jackson ImmunoResearch Laboratories (West Grove, Pennsylvania). Band densities were normalized to β-actin, the endogenous control. At least five replicates were used for statistical analyses."}, "[2]": {"test_system": "MDA-MB-231 cells", "test": "Western blots", "type": "cell-based, human", "settings": "20 μM", "description": "as §1, §2"}, "[3]": {"test_system": "MCF7 cells", "test": "Western blots", "type": "cell-based, human", "settings": "20 μM", "description": "as §1, §2"}, "[4]": {"test_system": "HEK-293 cells", "test": "Cytotoxicity assay (calcein-AM)", "type": "cell-based", "settings": "Homo sapiens, HEK293; HEK-293; 48 hours; read-out: Log [μM] EC50 (converted)", "description": "(§3) HS-5, HEK-293, MCF7, MDA-MB-231 and Rosi cells were seeded in 96-well optical bottom tissue culture plates (Corning, New York) at a density of 2.5×10^3 cells/well. After 24 hours, the media were changed to media containing LB-100 (Cayman Chemical Company, Ann Arbor, Michigan) or Compound 2 at various concentrations (50-0.31 μM). Control cells were given fresh media. After 48 hours the media were aspirated and plates were washed with warmed Dulbecco's phosphate-buffered saline (DPBS) with calcium and magnesium (Sigma-Aldrich, catalog #D1283). Cells were stained with 3 μM calcein-AM (AAT Bioquest, Pleasanton, California, catalog #22002) in DPBS for 30 minutes in the dark at 37° C. Plates were immediately read with a Biotek fluorescent plate reader (excitation 485 nm, emission 520 nm). The cytotoxicity assays were performed at least three times, each time with six replicates per condition."}, "[5]": {"test_system": "HS-5 cells", "test": "Cytotoxicity assay (calcein-AM)", "type": "cell-based", "settings": "HS-5, 48 hours", "description": "as §3"}, "[6]": {"test_system": "Rosi cells", "test": "Cytotoxicity assay (calcein-AM)", "type": "cell-based, human", "settings": "Homo sapiens; Rosi; 48 hours; read-out: Log [μM] EC50 (converted)", "description": "as §3, with “After 24 hours, the media were changed to media containing LB-100 (Cayman Chemical Company, Ann Arbor, Michigan) or Compound 2 at various concentrations (50-0.31 μM).” left out"}, "[7]": {"test_system": "MDA-MB-231 cells", "test": "Cytotoxicity assay (calcein-AM)", "type": "cell-based, human", "settings": "MDA-MB-231, 48 hours", "description": "as §3"}, "[8]": {"test_system": "MCF7 cells", "test": "Cytotoxicity assay (calcein-AM)", "type": "cell-based, human", "settings": "MCF7, 48 hours", "description": "as §3"}, "[9]": {"settings": "Homo sapiens, read-out: Log [μM] EC50 (converted)"}},
  "data": [
    {"smiles": "COC(=O)c1c(NC(=O)c2ccccc2C)sc(C(=O)Nc2cccc(C)c2)c1C", "note": "[Compound 2, methyl 4-methyl-2-[(2-methylbenzoyl)amino]-5-[[(3-methylphenyl)amino]carbonyl]-3-thiophenecarboxylate]", "values": [
      {"measurement": "RIPK1 phosphorylation at serine 161", "setting": "[1]", "value": "increased RIPK1 phosphorylation at serine 161"},
      {"measurement": "phosphorylation of ACC1", "setting": "[1]", "value": "increased phosphorylation of ACC1"},
      {"measurement": "phosphorylation of AMPK", "setting": "[1]", "value": "Increased phosphorylation of AMPK was not found"},
      {"measurement": "phosphorylation of MLKL", "setting": "[1]", "value": "Increased phosphorylation of MLKL was noted"},
      {"measurement": "PP2Ac methylation", "setting": "[1]; Compound 2 significant at 6 hours", "value": "decreased PP2Ac methylation"},
      {"measurement": "cytosolic PP2Ab expression", "setting": "[1]; after 4-6 hours of exposure", "value": "decreased cytosolic PP2Ab expression"},
      {"measurement": "RIPK1 phosphorylation at serine 161", "setting": "[2]", "value": "increased RIPK1 phosphorylation at serine 161"},
      {"measurement": "cytosolic PP2Ab expression", "setting": "[2]", "value": "did not change cytosolic expression PP2Ab"},
      {"measurement": "phosphorylation of AMPK", "setting": "[2]", "value": "Increased phosphorylation of AMPK was not found"},
      {"measurement": "phosphorylation of MLKL", "setting": "[2]", "value": "not in MDA-MB-231 cells"},
      {"measurement": "PP2Ac methylation", "setting": "[2]; Compound 2 significant at 4 hours", "value": "decreased PP2Ac methylation"},
      {"measurement": "RIPK1 phosphorylation at serine 161", "setting": "[3]", "value": "did not statistically increase"},
      {"measurement": "phosphorylation of ACC1", "setting": "[3]", "value": "increased phosphorylation of ACC1"},
      {"measurement": "phosphorylation of AMPK", "setting": "[3]", "value": "Increased phosphorylation of AMPK was not found"},
      {"measurement": "phosphorylation of MLKL", "setting": "[3]", "value": "Increased phosphorylation of MLKL was noted"},
      {"measurement": "cytosolic PP2Ab expression", "setting": "[3]; after 4-6 hours of exposure", "value": "decreased cytosolic PP2Ab expression"},
      {"measurement": "PP2Ac methylation", "setting": "[3]; lysates after 2, 4, 6, 8 and 12 hours", "value": "did not significantly decrease methylation of PP2Ac"},
      {"measurement": "EC50", "setting": "[4]", "value": 4.68, "unit": "µM"},
      {"measurement": "EC50", "setting": "[5]; HS5, read-out: Log [μM] EC50 (converted)", "value": 8.71, "unit": "µM"},
      {"measurement": "concentration at which cytotoxicity was significant", "setting": "[5]", "value": 20, "unit": "µM"},
      {"measurement": "EC50", "setting": "[6]", "value": 3.16, "unit": "µM"},
      {"measurement": "EC50", "setting": "[7]; [9]", "value": 3.89, "unit": "µM"},
      {"measurement": "concentration at which survival was significantly inhibited", "setting": "[7]", "value": 25, "unit": "µM"},
      {"measurement": "EC50", "setting": "[8]; [9]", "value": 2.24, "unit": "µM"},
      {"measurement": "inhibition of survival", "setting": "[8]; concentrations tested 50-0.31 μM", "value": "Neither LB-100 nor Compound 2 significantly inhibited survival"}
    ]}
  ]
}
